Drawing on US20260035376A1, “COMPOSITIONS AND METHODS FOR INHIBITION OF RAS” (TheRas, Inc., priority 2022, published 2026), this text covers IC50 for 10 compounds.

The target in assay [1] is T1, Avi-KRAS G12D (1-169) GppNHp/RAF1 RBD-3×FLAG (52-151) (Homo sapiens, UniProt P01116, G12D).
T1 construct: 50 nM Avi-KRAS G12D (1-169) GppNHp/RAF1 RBD-3×FLAG (52-151)
As to the kind of experiment: Disrupting RAS-effector binding HTRF assay, Raf1 RBD-KRAS G12D-GppNHp. The note with it: PPI HTRF, 50 nM Avi-KRAS G12D GppNHp, compound titration 30-0.0045 μM; read-out: Raf1 RBD-KRAS G12D-GppNHp disruption. As for the experimental part:
(§1) A protein:protein interaction (PPI) Homogeneous Time Resolved Fluorescence (HTRF) assay was used to determine the effectiveness of compounds of the present disclosure in disrupting KRAS protein and effector RAF1 binding.
(§2) The HTRF assay used the following reagents and proteins: (i) 50 nM Avi-KRAS G12D (1-169) GppNHp/RAF1 RBD-3×FLAG (52-151); (ii) 50 nM Avi-KRAS G12R (1-169) GppNHp/RAF1 RBD-3×FLAG (52-151); (iii) 50 nM Avi-KRAS G12V (1-169) GppNHp/RAF1 RBD-3×FLAG (52-151), (iv) 50 nM Avi-KRAS WT (1-169) GppNHp/RAF1 RBD-3×FLAG (52-151); and (v) 75 nM Avi-RAF1 RBD-3×FLAG. The assay buffer included: 50 mM Tris pH 7.5, 100 mM NaCl, 5 mM MgCl2, 0.1% BSA, […], 10% DMSO. The bead buffer included: 50 mM Tris pH 7.5, 0.01% o Tween 20. Assay volume of 20 μL was used in a 384 well plate-low volume format. Compound titration: 30-0.0045 μM, 3× dilution series.
(§3) The HTRF assay employed the following protocol:
(§4) Compounds were dispensed in assay plate (384-well, Grenier Bione #784075) using Echo (model 555) with dose response settings: 200 nL final volume, titration from 30 μM as a 10-point dilution series. Protein mix was prepared in assay buffer, and dispensed on plates, 10 μL per well, then incubated for 1 h at room temperature, with 700 rpm shaking. Reagents mix was prepared and dispensed on plates, 10 μL per well, then incubated for 1 h at room temperature, with 700 rpm shaking.
(§5) Plates were analyzed on an Envision plate reader using the following setting: Excitation 320 nm, Bandwidth 75 nM; Emission 615 nm, Bandwidth 85 nM, Gain 100%, Flashes 100, Lag 60 μs. Data were reported as percentage of activity, with DMSO as 100%. Data were plotted and analyzed using Prism 8.
(§6) The biochemical Raf1-KRAS G12D/G12R/G12V/WT-GppNHP disruption assay IC50 of selected compounds described herein are shown in Table 4.
A general note: In TR-FRET formats the signal depends on donor and acceptor labels being close together.

Assay [2] concerns the target T2, Avi-KRAS G12V (1-169) GppNHp/RAF1 RBD-3×FLAG (52-151) (Homo sapiens, UniProt P01116, G12V).
T2 construct: 50 nM Avi-KRAS G12V (1-169) GppNHp/RAF1 RBD-3×FLAG (52-151)
As to the kind of experiment: Disrupting RAS-effector binding HTRF assay, Raf1 RBD-KRAS G12V-GppNHp. The following applies: PPI HTRF, 50 nM Avi-KRAS G12V GppNHp, compound titration 30-0.0045 μM; read-out: Raf1 RBD-KRAS G12V-GppNHp disruption. As for the experimental part:
as §1, §2, §3, §4, §5, §6

For assay [3], the target named is T3, Avi-KRAS G12R (1-169) GppNHp/RAF1 RBD-3×FLAG (52-151) (Homo sapiens, UniProt P01116, G12R).
T3 construct: 50 nM Avi-KRAS G12R (1-169) GppNHp/RAF1 RBD-3×FLAG (52-151)
In words: Disrupting RAS-effector binding HTRF assay, Raf1 RBD-KRAS G12R-GppNHp. The note with it: PPI HTRF, 50 nM Avi-KRAS G12R GppNHp, compound titration 30-0.0045 μM; read-out: Raf1 RBD-KRAS G12R-GppNHp disruption. As for the experimental part:
as §1, §2, §3, §4, §5, §6

Assay [4] has as its target T4, Avi-KRAS WT (1-169) GppNHp/RAF1 RBD-3×FLAG (52-151) (Homo sapiens, UniProt P01116).
T4 construct: 50 nM Avi-KRAS WT (1-169) GppNHp/RAF1 RBD-3×FLAG (52-151)
As to the kind of experiment: Disrupting RAS-effector binding HTRF assay, Raf1 RBD-KRAS WT-GppNHp. The following applies: PPI HTRF, 50 nM Avi-KRAS WT GppNHp, compound titration 30-0.0045 μM; read-out: Raf1 RBD-KRAS WT-GppNHp disruption. The procedure:
as §1, §2, §3, §4, §5, §6

The test system of assay [5] is KRAS G12D protein/effector signaling in GP2d cells. In words: Cell-based pERK HTRF assay in GP2d cell. The note with it: 1 h, 60 min incubation. The procedure: A pERK assay (Perkin Elmer) was used to determine the effectiveness of compounds in disrupting KRAS G12D protein/effector signaling in cells.
On Day 1, cells (GP2d) were seeded into 96-well plates at 3×10^4 cells/well in 80 μL complete growth media (DMEM, 10% FBS).
On Day 2, cells were treated with compounds at 0.25% DMSO. The source plate was created with compounds diluted in media at 5-fold the final assay concentration. The compounds were run in a 9-point concentration curve starting at […], with a half-log dilution between concentrations. 20 μL was transferred onto the cell plates (final volume in wells was 100 μL). Plates were harvested after 60 min incubation by aspirating media and adding kit-supplied 1× supplemented lysis buffer to all wells (50 μL per well). Plates were then placed on a plate shaker and incubated at 850 rpm for an additional 30 min.
Antibody mixture solution was prepared by diluting aliquoted d2 and Eu Cryptate antibodies 1:20 in kit supplied detection buffer, and mixing the diluted antibodies solutions (1:1 v:v). 4 μL of this solution was then added to a 384-well detection plate (Perkin Elmer; 6008230).
Samples were homogenized by pipetting up and down and then transferred (16 μL of cell lysates) from the 96-well cell culture plate to two wells of the HTRF 384-well detection plate containing the antibody solution. Plates were centrifuged (524 g for 1 min) and allowed to incubate between 4 and 24 h at room temperature. Maximum signal was reached after 4 h incubation time and remained stable over a period of 24 hours. Therefore, readings could be made between 4 and 24 h of incubation. Plates were centrifuged again (524 g for 1 min), then analyzed on the EnVision plate reader using the following settings: Excitation 320 nm, Bandwidth 75 nm; Emission 615 nm, Bandwidth 85 nm; Gain 100%; Flashes 100; Lag 60 μs.

T2 sequence (P01116 1-169 isoform P01116-2 G12V limits assumed): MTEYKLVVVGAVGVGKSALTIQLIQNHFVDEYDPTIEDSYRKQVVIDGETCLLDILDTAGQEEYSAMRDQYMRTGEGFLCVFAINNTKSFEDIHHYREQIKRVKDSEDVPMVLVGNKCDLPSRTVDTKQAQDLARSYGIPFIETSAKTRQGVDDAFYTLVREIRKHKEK
T1 sequence (P01116 1-169 isoform P01116-2 G12D limits assumed): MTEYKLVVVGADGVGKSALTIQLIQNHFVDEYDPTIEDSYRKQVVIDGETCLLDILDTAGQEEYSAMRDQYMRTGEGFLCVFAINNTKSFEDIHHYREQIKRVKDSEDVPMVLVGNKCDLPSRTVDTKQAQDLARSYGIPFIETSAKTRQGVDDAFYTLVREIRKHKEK
T3 sequence (P01116 1-169 isoform P01116-2 G12R limits assumed): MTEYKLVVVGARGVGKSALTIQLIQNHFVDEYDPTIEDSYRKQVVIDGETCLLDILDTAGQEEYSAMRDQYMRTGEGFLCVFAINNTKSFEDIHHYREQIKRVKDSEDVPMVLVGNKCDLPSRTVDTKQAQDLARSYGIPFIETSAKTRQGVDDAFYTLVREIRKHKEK
T4 sequence (P01116 1-169 isoform P01116-2 limits assumed): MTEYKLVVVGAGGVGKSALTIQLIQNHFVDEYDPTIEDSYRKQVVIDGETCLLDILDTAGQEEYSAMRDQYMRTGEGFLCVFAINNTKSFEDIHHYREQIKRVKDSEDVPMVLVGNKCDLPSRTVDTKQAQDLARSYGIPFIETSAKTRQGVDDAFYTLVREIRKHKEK

For the compound `N#Cc1c(N)sc2c(F)ccc(-c3c(C(F)(F)F)cc4c(N5CC6CCC(C5)N6)nc(OCC5(CO)CC5)nc4c3F)c12` [Compound 18], the IC50 in assay [1] was 100 to 1000 nM; in assay [2] it was 1000 to 10000 nM; in assay [3], 1000 to 10000 nM; in assay [4], 1000 to 10000 nM; in assay [5] it was no more than 100 nM.
In the case of `N#Cc1c(N)sc2c(F)ccc(-c3c(C(F)(F)F)cc4c(N5CC6CCC(C5)N6)nc(OCCc5cn[nH]c5)nc4c3F)c12` [Compound 19], the IC50 was 1000 to 10000 nM in assay [1]; greater than 10000 nM in assay [2]; greater than 10000 nM in assay [3]; 1000 to 10000 nM in assay [4]; no more than 100 nM in assay [5].
For `N#Cc1c(N)sc2c(F)ccc(-c3c(C(F)(F)F)cc4c(N5CC6CCC(C5)N6)nc(N5CCCC5)nc4c3F)c12` [Compound 20], the IC50 in assay [1] is 1000 to 10000 nM; in assay [2], greater than 10000 nM; in assay [3], greater than 10000 nM; in assay [4] it was 1000 to 10000 nM; in assay [5], 100 to 1000 nM.
Take `CC(=O)N(C)c1nc(N2C[C@H]3CC[C@@H](C2)N3)c2cc(C(F)(F)F)c(-c3ccc(F)c4sc(N)c(C#N)c34)c(F)c2n1` [Compound 21, N-(7-(2-amino-3-cyano-7-fluorobenzo[b]thiophen-4-yl)-4-((1R,5S)-3,8-diazabicyclo[3.2.1]octan-3-yl)-8-fluoro-6-(trifluoromethyl)quinazolin-2-yl)-N-methylacetamide]: the IC50 is greater than 10000 nM in assay [1]; greater than 10000 nM in assay [2]; greater than 10000 nM in assay [3]; 1000 to 10000 nM in assay [4]; 100 to 1000 nM in assay [5].
Regarding `Cc1nc(N2C[C@H]3CC[C@@H](C2)N3)c2cc(C(F)(F)F)c(-c3ccc(F)c4sc(N)c(C#N)c34)c(F)c2n1` [Compound 22, 4-(4-((1R,5S)-3,8-diazabicyclo[3.2.1]octan-3-yl)-8-fluoro-2-methyl-6-(trifluoromethyl)quinazolin-7-yl)-2-amino-7-fluorobenzo[b]thiophene-3-carbonitrile], the IC50 is 1000 to 10000 nM in assay [1]; greater than 10000 nM in assay [2]; greater than 10000 nM in assay [3]; 1000 to 10000 nM in assay [4]; no more than 100 nM in assay [5].
Take `CCCc1nc(N2CC3CCC(C2)N3)c2cc(C(F)(F)F)c(-c3ccc(F)c4sc(N)c(C#N)c34)c(F)c2n1` [Compound 23]: the IC50 in assay [1] was 1000 to 10000 nM; in assay [2] it was greater than 10000 nM; in assay [3], greater than 10000 nM; in assay [4], 1000 to 10000 nM; in assay [5], no more than 100 nM.
Take `N#Cc1c(N)sc2c(F)ccc(-c3c(C(F)(F)F)cc4c(N5CC6CCC(C5)N6)nc(OC[C@H]5CNC(=O)C5)nc4c3F)c12` [Compound 24]: the IC50 in assay [1] is 100 to 1000 nM; in assay [2], 1000 to 10000 nM; in assay [3], 1000 to 10000 nM; in assay [4] it was 100 to 1000 nM; in assay [5], no more than 100 nM.
As for `N#Cc1c(N)sc2c(F)ccc(-c3c(C(F)(F)F)cc4c(N5CC6CCC(C5)N6)nc(N5CCNC(=O)CC5)nc4c3F)c12` [Compound 25], the IC50 was 1000 to 10000 nM in assay [1]; greater than 10000 nM in assay [2]; greater than 10000 nM in assay [3]; 1000 to 10000 nM in assay [4]; 100 to 1000 nM in assay [5].
With `N#Cc1c(N)sc2c(F)ccc(-c3c(C(F)(F)F)cc4c(N5CC6CCC(C5)N6)nc(N5CCNS(=O)(=O)CC5)nc4c3F)c12` [Compound 26], the IC50 in assay [1] was 1000 to 10000 nM; in assay [2], greater than 10000 nM; in assay [3], greater than 10000 nM; in assay [4], 1000 to 10000 nM; in assay [5], 100 to 1000 nM.
Regarding `CN(C(=O)c1cnn(C)c1)c1nc(N2CC3CCC(C2)N3)c2cc(C(F)(F)F)c(-c3ccc(F)c4sc(N)c(C#N)c34)c(F)c2n1` [Compound 27], the IC50 in assay [1] is greater than 10000 nM; in assay [2] it was greater than 10000 nM; in assay [3] it was greater than 10000 nM; in assay [4] it was 1000 to 10000 nM; in assay [5], 100 to 1000 nM.
